From PubChem BioAssay (NCI)
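Method: 48-hour compound exposure of cells in 96-well plates, five concentrations, linear interpolation of endpoints. Here, GI50 denotes the concentration required for 50% inhibition of growth. TGI: total growth inhibition.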

Key:
Test in all cases: DTP human tumour cell line panel, 48 h
786-0 renal = system: 786-0 renal
A549 NSCLC = system: A549 NSCLC
HCT-116 colon = system: HCT-116 colon
K-562 leukemia = system: K-562 leukemia
NCI-H522 lung = system: NCI-H522 lung
SNB-19 CNS = system: SNB-19 CNS
SNB-75 CNS = system: SNB-75 CNS
U251 CNS = system: U251 CNS
UO-31 renal = system: UO-31 renal

Compound	GI50 (786-0 renal)	TGI (786-0 renal)	GI50 (A549 NSCLC)	TGI (A549 NSCLC)	GI50 (HCT-116 colon)	TGI (HCT-116 colon)	GI50 (K-562 leukemia)	TGI (K-562 leukemia)	GI50 (NCI-H522 lung)	TGI (NCI-H522 lung)	GI50 (SNB-19 CNS)	TGI (SNB-19 CNS)	GI50 (SNB-75 CNS)	TGI (SNB-75 CNS)	GI50 (U251 CNS)	TGI (U251 CNS)	GI50 (UO-31 renal)	TGI (UO-31 renal)
C=CCSc1n[nH]c(-c2cccs2)n1	> 100 µM	> 100 µM	> 100 µM	> 100 µM	> 100 µM	> 100 µM	> 100 µM	> 100 µM	> 100 µM	> 100 µM	> 100 µM	> 100 µM	> 100 µM	> 100 µM	> 100 µM	> 100 µM	> 100 µM	> 100 µM
O=C=Nc1ccc(Cc2ccc(N=C=O)cc2)cc1 (tested in a mixture with another compound)	> 25 µg/mL	> 25 µg/mL	> 25 µg/mL	> 25 µg/mL	> 25 µg/mL	> 25 µg/mL	12.3 µg/mL	> 25 µg/mL	> 25 µg/mL	> 25 µg/mL	> 25 µg/mL	> 25 µg/mL	> 25 µg/mL	> 25 µg/mL	> 25 µg/mL	> 25 µg/mL	> 25 µg/mL	> 25 µg/mL
C=CC1=C(C)C2=NC1=CC1=NC(=C(CC)/C1=C/O)C=C1C=C3C(=O)C(C(=O)OC)C(=C4NC(=C2)C(C)C4CCC(=O)OC/C=C(\C)CCCC(C)CCCC(C)CCCC(C)C)C3=N1 (stereo unspecified) (tested in a mixture with another compound)	–	> 100 µM	–	> 100 µM	–	> 100 µM	–	> 100 µM	–	73 µM	–	> 100 µM	–	> 100 µM	–	> 100 µM	–	> 100 µM
c1ccc(-c2cc(-c3cc(-c4ccccn4)[nH]n3)n[nH]2)nc1	–	> 100 µM	–	> 100 µM	–	> 100 µM	–	> 100 µM	–	> 100 µM	–	> 100 µM	–	> 100 µM	–	> 100 µM	–	73.2 µM
COc1ccc2[nH]cc(/C=C3\C(=O)Nc4ccccc43)c2c1	11.9 µM	30.2 µM	4.68 µM	24.4 µM	3.41 µM	14.5 µM	2.28 µM	9.83 µM	4.59 µM	19.6 µM	8.7 µM	> 100 µM	3.14 µM	15.1 µM	6.12 µM	21.2 µM	6.94 µM	32.4 µM
C[C@]12CC[C@@H]3c4ccc(O)cc4CC[C@H]3[C@@H]1CC[C@@H]2NS(=O)(=O)c1cccc(Br)c1	3.25 µM	10.4 µM	3.11 µM	13.1 µM	3.03 µM	10.2 µM	3.59 µM	14.8 µM	2.36 µM	11.4 µM	7.09 µM	20.4 µM	2.9 µM	13.5 µM	3.23 µM	11 µM	2.03 µM	8.72 µM
O=C1c2cccc3c(N4CCN(c5ccc6c7c(cccc57)C(=O)N(CCN5CCNCC5)C6=O)CC4)ccc(c23)C(=O)N1CCN1CCNCC1	1.84 µM	4.32 µM	16.3 µM	35.6 µM	3.8 µM	42.9 µM	2.78 µM	8.29 µM	18 µM	44.2 µM	16.1 µM	61.6 µM	17.4 µM	33.8 µM	16.8 µM	35.7 µM	12.8 µM	33 µM
N#CC1=C(N)Oc2c(sc3c(F)cccc23)C1c1ccc([N+](=O)[O-])cc1 (stereo unspecified)	0.337 µM	1.46 µM	0.214 µM	2.37 µM	0.169 µM	1.33 µM	0.0494 µM	1.79 µM	0.0776 µM	0.725 µM	0.241 µM	1.51 µM	0.115 µM	0.445 µM	0.153 µM	1.21 µM	0.197 µM	1.03 µM
Cc1cc(N2CCN(C)CC2)nc(NC2CCCC(Nc3ccnc4cc(Cl)ccc34)C2)n1 (stereo unspecified)	1.81 µM	4.15 µM	3.14 µM	11 µM	1.46 µM	3.74 µM	0.451 µM	3.92 µM	2.29 µM	5.3 µM	3.42 µM	13.2 µM	1.65 µM	5 µM	2.02 µM	4.33 µM	1.49 µM	2.86 µM
Nc1cc(C(F)F)c(-c2nc(N3[C@@H]4CC[C@H]3COC4)nc(N3[C@@H]4CC[C@H]3COC4)n2)cn1	0.306 µM	14.3 µM	0.341 µM	> 100 µM	0.769 µM	> 100 µM	0.673 µM	> 100 µM	0.295 µM	> 100 µM	0.706 µM	> 100 µM	0.06 µM	0.793 µM	0.501 µM	> 100 µM	0.119 µM	6.85 µM
COc1cc2cc(C(=O)O)[nH]c2cc1OCc1ccccc1	> 100 µM	> 100 µM	–	–	> 100 µM	> 100 µM	> 100 µM	> 100 µM	> 100 µM	> 100 µM	> 100 µM	> 100 µM	> 100 µM	> 100 µM	> 100 µM	> 100 µM	> 100 µM	> 100 µM
Cc1ccnc2c1NC(=O)c1cccnc1N2C1CC1	> 100 µM	> 100 µM	> 100 µM	> 100 µM	> 100 µM	> 100 µM	> 100 µM	> 100 µM	> 100 µM	> 100 µM	> 100 µM	> 100 µM	54.4 µM	> 100 µM	> 100 µM	> 100 µM	48.7 µM	> 100 µM
COc1cc(/C=C2\C(=O)N(c3c(Cl)cccc3Cl)c3ccccc32)cc(OC)c1O	1.49 µM	17.4 µM	1.24 µM	10.1 µM	0.292 µM	4.83 µM	0.243 µM	> 66.6 µM	0.501 µM	4.01 µM	0.742 µM	19.3 µM	1.03 µM	17 µM	0.315 µM	13.5 µM	0.769 µM	12.3 µM
Nc1ccc(-c2ccc(-c3nc4ccccc4[nH]3)cc2)cc1	8.78 µM	84.9 µM	–	> 95.5 µM	2.45 µM	> 100 µM	0.117 µM	> 100 µM	1.1 µM	> 53.9 µM	18.4 µM	> 100 µM	27.8 µM	69.4 µM	11.4 µM	44.5 µM	10.5 µM	> 100 µM
